Measured values: BigSolDB 2.1

c1ccc2c(c1)Nc1ccccc1S2
solubility (mole fraction)
Conditions	298.2 K	308.2 K	318.2 K	328.2 K	338.2 K
in ethanol	0.00876	0.01	0.0122	0.0145	–
in propylene glycol	0.00416	0.0054	0.00656	0.00763	0.00852
in water	1.56e-07	1.98e-07	2.52e-07	3.58e-07	4.91e-07
